Columns and labels:
[1] = target: CDK12 (Homo sapiens (Human), UniProt Q9NYV4); assay: Radiometric protein kinase assay (33PanQinase Activity Assay), Assay Condition B (thiol-free conditions); assay type: biochemical; conditions: thiol-free conditions (1 mM TCEP, glutathione removed)
Procedure: Example 2—Assay Condition B (Thiol-Free Conditions)
The IC50 profile of compounds was determined using one protein kinase in a customized, thiol free assay. […] Prior to testing, the 1×10^−03 M stock solutions in column 2 of the master plates were subjected to a serial, semi-logarithmic dilution using 100% DMSO as a solvent. […] Column 1 and 7 were filled with 100% DMSO as controls. Subsequently, 2×10 microliter from each well of the serial diluted copy plates were aliquoted with a 96 channel pipettor into two identical sets of “compound dilution plates”. All plates were barcoded for automated identification and tracking purposes. […] All compounds were stored as powder until being solubilized in DMSO. Solubilized compounds were stored as 1×10^−02 M/100% DMSO stock solutions. Prior to the assay process, 90 microliters of H2O were added to each well of a set of compound dilution plates. To minimize potential precipitation, the H2O was added to each plate only a few minutes before the transfer of the compound solutions into the assay plates. Each plate was shaken thoroughly, resulting in compound dilution plates with a final of 10% DMSO. For each assay, 5 microliters of solution from each well of the compound dilution plates/10% DMSO were transferred into the assay plate. The final volume of the assay was 50 μl. All compounds were tested at 10 final assay concentrations in the range from 1×10^−05 M to 3×10^−10 M, in singlicate. The final DMSO concentration in the reaction cocktails was 1% in all cases. A radiometric protein kinase assay (33PanQinase® Activity Assay) was used for measuring the kinase activity of the protein kinase. All kinase assays were performed in 96-well FlashPlates™ from PerkinElmer (Boston, Mass., USA) in a 50 microliter reaction volume. The reaction cocktail was pipetted in four steps in the following order: 20 microliter of assay buffer (standard buffer)·5 microliter of ATP solution (in H2O)·5 microliter of test compound (in 10% DMSO)·20 microliter enzyme/substrate mix. […] For all experiments labeled as “Thiol-free”, all glutathione was exchanged from protein preparations so as to be removed from the assay and final buffer conditions contained no thiol-containing reagents. This was done so there would be no interference with the key cysteines in the proteins of interest.
For data analysis, the median value of the counts in column 1 (n=8) of each assay plate was defined as “low control”. This value reflects unspecific binding of radioactivity to the plate in the absence of a protein kinase but in the presence of the substrate. The median value of the counts in column 7 of each assay plate (n=8) was taken as the “high control”, i.e. full activity in the absence of any inhibitor. The difference between high and low control was taken as 100% activity. As part of the data evaluation the low control value from a particular plate was subtracted from the high control value as well as from all 80 “compound values” of the corresponding plate. The residual activity (in %) for each well of a particular plate was calculated by using the following formula: Res. Activity (%)=100×[(cpm of compound−low control)/(high control−low control)]
The residual activities for each concentration and the compound IC50 values were calculated using Quattro Workflow V3.1.1 (Quattro Research GmbH, Munich, Germany; www.quattro-research.com). […] The fitting method used was a least-squares fit. As a parameter for assay quality, the Z′-factor (Zhang et al., J. Biomol. Screen. 2: 67-73, 1999) for the low and high controls of each assay plate (n=8) was used. ProQinase's criterion for repetition of an assay plate is a Z′-factor below 0.4 (Iversen et al., J. Biomol. Screen. 3: 247-252, 2006).

[2] = target: CDK12 wt/CycK (Homo sapiens (Human), UniProt Q9NYV4); assay: Radiometric protein kinase assay (33PanQinase Activity Assay), Assay Condition A (thiol containing conditions); assay type: biochemical; conditions: thiol containing conditions (1.2 mM DTT), ATP 0.3 μM; read-out: CDK12 IC50 Condition A
Chain of CDK12 wt/CycK (Q9NYV4 whole entry): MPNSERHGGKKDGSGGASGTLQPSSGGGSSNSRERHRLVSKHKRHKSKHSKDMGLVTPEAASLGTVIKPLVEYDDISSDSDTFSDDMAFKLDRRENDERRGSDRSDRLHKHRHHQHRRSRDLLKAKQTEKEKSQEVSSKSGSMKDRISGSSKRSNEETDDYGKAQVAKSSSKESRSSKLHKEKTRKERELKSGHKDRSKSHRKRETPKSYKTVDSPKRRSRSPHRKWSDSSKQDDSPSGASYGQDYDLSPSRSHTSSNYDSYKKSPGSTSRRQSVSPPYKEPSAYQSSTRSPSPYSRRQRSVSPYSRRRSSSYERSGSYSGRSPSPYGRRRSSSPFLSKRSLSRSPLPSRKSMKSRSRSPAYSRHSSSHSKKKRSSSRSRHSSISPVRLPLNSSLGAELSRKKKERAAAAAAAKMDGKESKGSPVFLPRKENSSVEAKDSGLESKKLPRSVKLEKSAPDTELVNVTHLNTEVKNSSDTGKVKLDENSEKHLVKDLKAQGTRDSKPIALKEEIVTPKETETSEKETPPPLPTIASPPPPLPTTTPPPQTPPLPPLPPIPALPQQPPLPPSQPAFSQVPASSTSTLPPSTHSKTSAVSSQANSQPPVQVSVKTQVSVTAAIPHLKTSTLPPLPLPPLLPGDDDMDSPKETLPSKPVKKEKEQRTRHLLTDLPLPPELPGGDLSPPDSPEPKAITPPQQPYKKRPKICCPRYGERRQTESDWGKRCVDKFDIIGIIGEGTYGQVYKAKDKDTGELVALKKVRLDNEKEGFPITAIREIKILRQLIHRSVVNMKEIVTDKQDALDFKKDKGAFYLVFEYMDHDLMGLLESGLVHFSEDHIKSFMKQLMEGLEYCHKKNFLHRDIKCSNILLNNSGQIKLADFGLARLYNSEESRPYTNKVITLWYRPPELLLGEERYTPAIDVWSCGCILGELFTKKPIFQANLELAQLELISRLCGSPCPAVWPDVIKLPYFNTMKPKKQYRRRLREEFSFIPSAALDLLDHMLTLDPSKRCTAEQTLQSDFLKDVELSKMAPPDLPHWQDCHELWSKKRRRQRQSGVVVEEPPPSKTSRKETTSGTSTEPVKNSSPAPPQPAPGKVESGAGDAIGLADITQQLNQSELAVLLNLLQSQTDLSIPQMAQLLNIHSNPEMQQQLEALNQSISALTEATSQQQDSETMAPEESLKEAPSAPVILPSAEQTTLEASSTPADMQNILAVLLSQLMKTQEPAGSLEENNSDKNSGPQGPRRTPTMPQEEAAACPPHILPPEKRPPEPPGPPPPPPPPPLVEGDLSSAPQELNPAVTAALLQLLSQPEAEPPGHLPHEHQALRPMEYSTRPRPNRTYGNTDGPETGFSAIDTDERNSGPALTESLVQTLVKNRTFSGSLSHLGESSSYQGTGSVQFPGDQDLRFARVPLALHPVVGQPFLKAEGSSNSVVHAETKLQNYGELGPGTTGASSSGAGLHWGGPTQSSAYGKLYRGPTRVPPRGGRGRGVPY
Chain of CDK12 wt/CycK (O75909 whole entry partner): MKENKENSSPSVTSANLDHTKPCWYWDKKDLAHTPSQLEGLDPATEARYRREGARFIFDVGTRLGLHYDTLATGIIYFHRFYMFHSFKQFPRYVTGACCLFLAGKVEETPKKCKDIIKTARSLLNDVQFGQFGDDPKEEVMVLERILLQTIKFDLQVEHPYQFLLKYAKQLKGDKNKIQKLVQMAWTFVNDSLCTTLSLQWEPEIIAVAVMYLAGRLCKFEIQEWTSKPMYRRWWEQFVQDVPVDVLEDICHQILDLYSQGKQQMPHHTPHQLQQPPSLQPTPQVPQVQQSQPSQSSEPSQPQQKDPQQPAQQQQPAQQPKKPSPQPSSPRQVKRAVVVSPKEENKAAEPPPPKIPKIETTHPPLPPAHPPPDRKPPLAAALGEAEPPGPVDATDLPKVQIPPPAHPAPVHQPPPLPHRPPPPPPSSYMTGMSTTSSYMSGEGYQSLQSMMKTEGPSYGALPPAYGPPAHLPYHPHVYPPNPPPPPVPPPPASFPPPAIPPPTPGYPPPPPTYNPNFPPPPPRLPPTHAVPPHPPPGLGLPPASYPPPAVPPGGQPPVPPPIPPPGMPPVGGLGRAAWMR
Method in brief: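 Recombinant human kinase incubated with [33P]ATP, substrate and compound (10 concentrations, 1×10^−04M to 3×10^−09M, singlicate, 1% DMSO) under thiol-containing buffer conditions, 60 min at 30 °C. 33Pi incorporation counted by scintillation; residual activity normalised to no-inhibitor and no-kinase controls, IC50 derived.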

Chain of CDK12 (Q9NYV4 whole entry): as the sequence (Q9NYV4 whole entry) above
Chain of CDK12 (O75909 whole entry partner): as the sequence (O75909 whole entry partner) above

SMILES	IC50 [1] [nM]	IC50 [2] [nM]
C=CC(=O)Nc1ccc(C(=O)N2CC[C@@H](Nc3nccc(OC4CCCC4)n3)C2)cc1 (stereo in doubt) [Example 45, N-{4-[3-(4-Cyclopentyloxy-pyrimidin-2-ylamino)-pyrrolidine-1-carbonyl]-phenyl}-acrylamide]	100 to 1000	–
C=CC(=O)Nc1ccc(C(=O)N2CC[C@@H](Nc3nccc(Oc4cnn(C)c4)n3)C2)cc1 (stereo in doubt) [Example 46, N-(4-{3-[4-(1-Methyl-1H-pyrazol-4-yloxy)-pyrimidin-2-ylamino]-pyrrolidine-1-carbonyl}-phenyl)-acrylamide]	1000 to 10000	–
C=CC(=O)Nc1ccc(C(=O)N2CC[C@@H](Nc3nccc(-c4cncs4)n3)C2)cc1 (stereo in doubt) [Example 48, N-{4-[3-(4-Thiazol-5-yl-pyrimidin-2-ylamino)-pyrrolidine-1-carbonyl]-phenyl}-acrylamide]	100 to 1000	–
C=CC(=O)Nc1ccc(C(=O)N2CC[C@@H](Nc3ncc(Cl)c(OC)n3)C2)cc1OC [Example 1, (R)-N-(4-(3-((5-chloro-4-methoxypyrimidin-2-yl)amino)pyrrolidine-1-carbonyl)-2-methoxyphenyl)acrylamide]	< 100	–
C=CC(=O)N1CCOc2cc(C(=O)N3CC[C@@H](Nc4ncc(Cl)c(OC)n4)C3)ccc21 [Example 2, (R)-1-(7-(3-((5-chloro-4-methoxypyrimidin-2-yl)amino)pyrrolidine-1-carbonyl)-2H-benzo[b][1,4]oxazin-4(3H)-yl)prop-2-en-1-one]	100 to 1000	–
C=CC(=O)Nc1ccc(C(=O)N2CC[C@@H](Nc3ncc(Cl)c(OC)n3)C2)cc1-c1cnn(C)c1 [Example 4, (R)-N-(4-(3-((5-chloro-4-methoxypyrimidin-2-yl)amino)pyrrolidine-1-carbonyl)-2-(1-methyl-1H-pyrazol-4-yl)phenyl)acrylamide]	100 to 1000	–
C=CC(=O)Nc1ccc(C(=O)N2CC[C@@H](Nc3ncc(Cl)c(OC)n3)C2)cc1Cl [Example 5, (R)-N-(2-chloro-4-(3-((5-chloro-4-methoxypyrimidin-2-yl)amino)pyrrolidine-1-carbonyl)phenyl)acrylamide]	< 100	–
C=CC(=O)Nc1ccc(C(=O)N2CC[C@@H](Nc3ncc(Cl)cn3)C2)cc1Cl [Example 6, (R)-N-(2-chloro-4-(3-((5-chloropyrimidin-2-yl)amino)pyrrolidine-1-carbonyl)phenyl)acrylamide]	< 100	–
C=CC(=O)Nc1nc(C(=O)N2CC[C@@H](Nc3ncc(Cl)c(OC)n3)C2)cs1 [Example 7, (R)-N-(4-(3-((5-chloro-4-methoxypyrimidin-2-yl)amino)pyrrolidine-1-carbonyl)thiazol-2-yl)acrylamide]	< 100	–
C=CC(=O)Nc1ncc(C(=O)N2CC[C@@H](Nc3ncc(Cl)c(OC)n3)C2)s1 [Example 8, (R)—N-(5-(3-((5-chloro-4-methoxypyrimidin-2-yl)amino)pyrrolidine-1-carbonyl)thiazol-2-yl)acrylamide]	100 to 1000	–
C=CC(=O)Nc1ccc(C(=O)N2CC[C@@H](Nc3ncc(Cl)c(OC)n3)C2)cc1N1CCN(C)CC1 [Example 9, (R)-N-(4-(3-((5-chloro-4-methoxypyrimidin-2-yl)amino)pyrrolidine-1-carbonyl)-2-(4-methylpiperazin-1-yl)phenyl)acrylamide]	< 100	–
C=CC(=O)Nc1ccc(C(=O)N2CC[C@@H](Nc3ncc(Cl)c(OC)n3)C2)cc1N1CCOCC1 [Example 10, (R)—N-(4-(3-((5-chloro-4-methoxypyrimidin-2-yl)amino)pyrrolidine-1-carbonyl)-2-morpholinophenyl)acrylamide]	< 100	–
C=CC(=O)Nc1ccc(C(=O)N2CC[C@@H](Nc3ncc(Cl)c(OC)n3)C2)cc1N1CCCCC1 [Example 11, (R)—N-(4-(3-((5-chloro-4-methoxypyrimidin-2-yl)amino)pyrrolidine-1-carbonyl)-2-(piperidin-1-yl)phenyl)acrylamide]	< 100	–
C=CC(=O)Nc1ccc(C(=O)N2CC[C@@H](Nc3ncc(Cl)cn3)C2)cc1-c1cnn(C)c1 [Example 12, (R)—N-(4-(3-((5-chloropyrimidin-2-yl)amino)pyrrolidine-1-carbonyl)-2-(1-methyl-1H-pyrazol-4-yl)phenyl)acrylamide]	100 to 1000	–
CCC(=O)Nc1ccc(C(=O)N2CC[C@@H](Nc3ncc(F)c(OC4CC4)n3)C2)cc1 [Example 13, (R)—N-(4-(3-((4-cyclopropoxy-5-fluoropyrimidin-2-yl)amino)pyrrolidine-1-carbonyl)phenyl)propionamide]	1000 to 10000	–
CCC(=O)Nc1ccc(C(=O)N2CC[C@@H](Nc3ncc(Cl)c(OC4CC4)n3)C2)cc1 [Example 15, (R)—N-(4-(3-((5-chloro-4-cyclopropoxypyrimidin-2-yl)amino)pyrrolidine-1-carbonyl)phenyl)propionamide]	100 to 1000	–
CCC(=O)Nc1ccc(C(=O)N2CC[C@@H](Nc3ncc(C)c(OC4CC4)n3)C2)cc1 [Example 16, (R)—N-(4-(3-((4-cyclopropoxy-5-methylpyrimidin-2-yl)amino)pyrrolidine-1-carbonyl)phenyl)propionamide]	1000 to 10000	–
CCC(=O)Nc1ccc(C(=O)N2CC[C@@H](Nc3ncc(Cl)c(OCC(F)(F)F)n3)C2)cc1 [Example 18, (R)—N-(4-(3-((5-chloro-4-(2,2,2-trifluoroethoxy)pyrimidin-2-yl)amino)pyrrolidine-1-carbonyl)phenyl)propionamide]	100 to 1000	–
C=CC(=O)Nc1ccc(C(=O)N2CC[C@@H](Nc3ncc(Cl)c(OC4CC4)n3)C2)cc1 [Example 21, (R)—N-(4-(3-((5-chloro-4-cyclopropoxypyrimidin-2-yl)amino)pyrrolidine-1-carbonyl)phenyl)acrylamide]	< 100	–
C=CC(=O)Nc1ccc(C(=O)N2CC[C@@H](Nc3ncc(C)c(OC4CC4)n3)C2)cc1 [Example 22, (R)—N-(4-(3-((4-cyclopropoxy-5-methylpyrimidin-2-yl)amino)pyrrolidine-1-carbonyl)phenyl)acrylamide]	100 to 1000	–
C=CC(=O)Nc1ccc(C(=O)N2CC[C@@H](Nc3ncc(F)c(OC4CC4)n3)C2)cc1 [Example 23, (R)—N-(4-(3-((4-cyclopropoxy-5-fluoropyrimidin-2-yl)amino)pyrrolidine-1-carbonyl)phenyl)acrylamide]	100 to 1000	–
C=CC(=O)Nc1ccc(C(=O)N2CC[C@@H](Nc3ncc(Cl)c(OCC(F)(F)F)n3)C2)cc1 [Example 24, (R)—N-(4-(3-((5-chloro-4-(2,2,2-trifluoroethoxy)pyrimidin-2-yl)amino)pyrrolidine-1-carbonyl)phenyl)acrylamide]	< 100	–
C=CC(=O)N1CCc2cc(C(=O)N3CC[C@@H](Nc4ncc(Cl)c(OC)n4)C3)ccc21 [Example 27, (R)-1-(5-(3-((5-chloro-4-methoxypyrimidin-2-yl)amino)pyrrolidine-1-carbonyl)indolin-1-yl)prop-2-en-1-one]	< 100	–
C=CC(=O)Nc1ccc(C(=O)N2C[C@H](Nc3ncc(Cl)c(OC)n3)C[C@H]2C)cc1 [Example 183, N-(4-((2R,4R)-4-((5-chloro-4-methoxypyrimidin-2-yl)amino)-2-methylpyrrolidine-1-carbonyl)phenyl)acrylamide]	–	< 100
C=CC(=O)Nc1ccc(C(=O)N2CC[C@@H](Nc3ncc(C(F)(F)F)cn3)C2)cc1 [Example 184, (R)—N-(4-(3-((5-(trifluoromethyl)pyrimidin-2-yl)amino)pyrrolidine-1-carbonyl)phenyl)acrylamide]	–	< 100
